In one assay the test system is SK-MEL-3 cells. Kind of assay: Assay 1 cell proliferation measurement (CTG, 72 h), SK-MEL-3. The assay is classed as cell-based, human. To be noted: Homo sapiens, SK-MEL3; Assay 1, 72 h, Cell Titer Glo; read-out: SK-MEL-3 IC50 [nM] (melanoma). In outline: (§1)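 CTG luminescence readout after 72 h compound exposure at 37 °C; 10-point 2.5-fold dilutions from 100 nM max final; DMSO 0.3% vehicle. IC50 from 4-parameter fit, normalised to 0 h plate (max inhibition) and DMSO (min inhibition).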
(In ATP-based viability assays light output follows the ATP content of the culture.)

In the next assay the test system is HeLa cells. Kind of assay: Assay 1 cell proliferation measurement (CTG, 72 h), HeLa. The assay is classed as cell-based, human. Conditions: Homo sapiens, HeLa; Assay 1, 72 h, Cell Titer Glo; read-out: HeLa IC50 [nM] (Cervical cancer). In outline:
as §1

In a further assay the test system is HMCB cells. The assay can be described thus: Assay 1 cell proliferation measurement, HMCB. The assay is classed as cell-based. To be noted: Homo sapiens, Melanoma, read-out: Anti-proliferation IC50 [nM] HMCB.
In a further assay the test system is IGR-1 cells. The assay can be described thus: Assay 1 cell proliferation measurement, IGR-1. The class given is cell-based. Conditions: Homo sapiens, Melanoma, read-out: Anti-proliferation IC50 [nM] IGR-1.
The test system of the next assay is DBTRG-05-MG cells. Kind of assay: Assay 1 cell proliferation measurement, DBTRG-05-MG. The class given is cell-based. Conditions: Homo sapiens, Glioblastoma, read-out: Anti-proliferation IC50 [nM] DBTRG-05-MG.
For assay [1], the system named is xenograft models of human tumors. Kind of assay: Assay 3 in vivo xenotransplantation models of human cancer (overall statement). To be noted: monotherapy treatment, p.o., mice. An excerpt:
(§2) In Vivo Xenotransplantation Models
(§3) The anti-tumor activities of Compounds of examples 135 and 146 were examined in murine xenotransplantation models of human cancer. For this purpose, mice were implanted subcutaneously with tumor cells. At a mean tumor size of 20-40 mm^2 animals were randomized into treatment and control groups (at least n=10 animals/group) and treatment started with vehicle only or respective Compound (formulation: 90% PEG400/10% Ethanol; application route: per os (“p.o.”), orally). The oral application volume was 10 ml/kg. In the case of twice daily treatments, the time interval between two applications per day was 6-7 h. The tumor size and the body weight were determined at least weekly. The tumor area was detected by means of an electronic caliper [length (mm)×width (mm)]. The experiment was ended when the study reached the pre-determined ethical endpoint based on German and European animal welfare regulations. In vivo anti-tumor efficacy is presented as T/C ratio at study end (Treatment/Control; mean tumor weight of treatment group/mean tumor weight of control group) in Table 8. A compound having a T/C below 0.5 is defined as active (i.e., effective). Statistical analysis was assessed using SigmaStat software. A one-way analysis of variance was performed and differences to the control were compared by a pair-wise comparison procedure (Dunn's method).

In another assay the test system is NCIH1563 cells. The assay can be described thus: Assay 2 cell proliferation measurement, NCIH1563. The assay is classed as cell-based. To be noted: Homo sapiens, NCI-H1563, Lung adenocarcinoma, read-out: Anti-proliferation IC50 [nM] NCIH1563. The procedure:
(§4) Cell Proliferation Measurement
(§5) The antiproliferative activity of the compounds of the general formula (I) was examined in vitro in human cancer cells. For this purpose, 500 cells, including HeLa cells, A2058 cells, DU145 cells, HMCB cells, IGR37 cells, NCIH1734 cells, OSRC2 cells, or 750 cells, including CAL51 cells, COL0741 cells, DBTRG05MG cells, DKMG cells, G292CLONEA141B1 cells, GB1 cells, HEL cells, HEL9217 cells, JHUEM1 cells, L3.3 cells, LI7 cells, TE4 cells, or 1000 cells, including 8505C cells, HUT78 cells, NCIH1563 cells, NCIH2122 cells, NCIH2172 cells, RVH421 cells, SKMEL3 cells, or 1500 cells, including C32 cells, HS578T cells, JHOM1 cells, NCIH196 cells, OVKATE cells, were plated in 384-well plates with appropriate growth medium and incubated at 37° C. overnight. […] After 72 h, the cells were treated with 20 μl/well of 50% CTG solution in PBS (Promega Cell Titer Glo (catalogue #G755B and G756B)) and incubated at room temperature for 10 min, and luminescence was measured by means of a VICTOR V (Perkin Elmer), in order to determine cell viability at the end of treatment. The percentage effect on cell growth and the IC50 derived therefrom were determined for each test substance using the values from untreated wells (=percent viability). The IC50 values were calculated using a 4-parameter fit.

Another assay relates to TE4 cells. Kind of assay: Assay 2 cell proliferation measurement, TE4. The assay is classed as cell-based. To be noted: Homo sapiens, Oesophagus squamous cell carcinoma, read-out: Anti-proliferation IC50 [nM] TE4. The protocol:
as §4, §5

For assay [2], the system named is PA-1 xenograft (Ovarian teratocarcinoma). The assay can be described thus: Assay 3 in vivo xenotransplantation model, PA-1. To be noted: PA-1 ovarian teratocarcinoma xenograft, mice.
Source text: as §2, §3

Structures are written as SMILES.

For `O=C1NN=C(c2ccc(-c3ccc(F)cc3)c(C(F)(F)F)c2)CO1` [Example 3, 5-[4′-Fluoro-2-(trifluoromethyl)biphenyl-4-yl]-3,6-dihydro-2H-1,3,4-oxadiazin-2-one], the IC50 in the assay on SK-MEL-3 cells worked out at 7 nM; in the assay with HeLa cells it was 3 nM; with HMCB cells, 26 nM; in the assay with IGR-1 cells, 99 nM.
For `O=C1NN=C(c2ccc(-c3ccc(Cl)cc3)c(C(F)(F)F)c2)CO1` [Example 31, 5-[4′-Chloro-2-(trifluoromethyl)biphenyl-4-yl]-3,6-dihydro-2H-1,3,4-oxadiazin-2-one], the values for the IC50 in the assay on SK-MEL-3 cells, in the assay on DBTRG-05-MG cells and with HeLa cells were 11 nM, 56 nM and 4 nM, respectively.
With `C[C@@H]1OC(=O)NN=C1c1ccc(-c2ccc(F)cc2)c(C(F)(F)F)c1` [Example 135, (6S)-5-[4′-Fluoro-2-(trifluoromethyl)biphenyl-4-yl]-6-methyl-3,6-dihydro-2H-1,3,4-oxadiazin-2-one], the IC50 is 3 nM with SK-MEL-3 cells; 18 nM in the assay on NCIH1563 cells; 15 nM with TE4 cells; 1 nM with HeLa cells; 13 nM in the assay with HMCB cells; more than 100 nM with IGR-1 cells. The “anti-tumor efficacy in xenograft models of human tumors” value in assay [1] is recorded as “potent anti-tumor efficacy”. Moreover, the “T/C (mean final tumor weight treatment / control)” value in [2] (5 mg/kg 2QD p.o.) turned out to be 0.63.
For `O=C1NN=C(c2ccc(-c3cnn(C(F)F)c3)c(C(F)(F)F)c2)CO1` [Example 146, 5-{4-[1-(Difluoromethyl)-1H-pyrazol-4-yl]-3-(trifluoromethyl)phenyl}-3,6-dihydro-2H-1,3,4-oxadiazin-2-one], the IC50 in the assay on SK-MEL-3 cells was determined as 2 nM; in the assay with DBTRG-05-MG cells, 14 nM; with HeLa cells, 1 nM. The “anti-tumor efficacy in xenograft models of human tumors” value in assay [1] is “potent anti-tumor efficacy”. Further, in [2] (20 mg/kg 2QD p.o., * P < 0.05 vs control), the “T/C (mean final tumor weight treatment / control)” value is 0.49*.
With `C[C@@H]1OC(=O)NN=C1c1ccc(-n2ccc(C(F)(F)F)n2)c(C(F)(F)F)c1` [Example 265, (6S)-6-Methyl-5-{3-(trifluoromethyl)-4-[3-(trifluoromethyl)-1H-pyrazol-1-yl]phenyl}-3,6-dihydro-2H-1,3,4-oxadiazin-2-one], the IC50 in the assay on SK-MEL-3 cells was found to be 5 nM; in the assay on NCIH1563 cells, 46 nM; with TE4 cells, 41 nM; in the assay with HeLa cells it was 2 nM.

These data come from patent publication US11427553B2, “Dihydrooxadiazinones” (Bayer Aktiengesellschaft, priority 2017, dated 2022).
